The text below walks through data of PMC5322940 (Cell, 2016).

Assay [1] deals with hCB1 WT receptor (Homo sapiens, UniProt P21554). As to the kind of experiment: biochemical. It is filed as binding.
The target in assay [2] is WT CB1 (Homo sapiens, UniProt P21554). Description: Wash out experiment followed by [3H]-CP55,940 saturation binding.
Assay [3] concerns the target T1, hCB1R (Homo sapiens, UniProt P21554). It is filed as cell-based.
Assay [4] has as its target T1, hCB1R. The class given is cell-based. This is another data set of the same source.
For assay [5], the target named is CB1 (Mus musculus, UniProt P47746). Description: [35S]GTPγS binding to CB1 in C57 mouse cerebellum membranes. The class given is biochemical. On the technique in general: GTPγS is a poorly hydrolysed GTP analogue; its binding reports G protein activation.
Chain of CB1 (Mus musculus, UniProt P47746) (P47746 whole entry): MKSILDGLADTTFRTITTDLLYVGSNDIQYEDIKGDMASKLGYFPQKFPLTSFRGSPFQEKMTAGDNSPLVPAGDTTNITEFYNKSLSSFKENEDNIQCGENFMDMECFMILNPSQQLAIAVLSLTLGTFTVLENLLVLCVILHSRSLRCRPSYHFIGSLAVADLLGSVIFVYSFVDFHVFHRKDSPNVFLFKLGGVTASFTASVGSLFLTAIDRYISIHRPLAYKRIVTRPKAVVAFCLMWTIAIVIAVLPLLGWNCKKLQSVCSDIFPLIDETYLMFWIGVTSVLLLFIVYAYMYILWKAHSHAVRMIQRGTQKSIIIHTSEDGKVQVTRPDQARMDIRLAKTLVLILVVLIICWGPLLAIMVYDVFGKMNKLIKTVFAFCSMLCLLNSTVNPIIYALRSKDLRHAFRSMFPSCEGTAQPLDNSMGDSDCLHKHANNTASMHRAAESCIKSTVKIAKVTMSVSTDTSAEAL
For assay [6], the system named is hCB1 Phe170^2.57Ala or Phe174^2.61Ala. As to the kind of experiment: Functional studies in mutant hCB1-CHO cells, Phe170Ala or Phe174Ala. It is filed as cell-based, human.
For assay [7], the system named is CB1. To be noted: cited from earlier work.
Assay [8] concerns hCB1 Phe170^2.57Trp or Phe174^2.61Trp. Description: Functional studies in mutant hCB1-CHO cells, Phe170Trp or Phe174Trp. It is filed as cell-based, human. The following applies: Phe170Ala/Trp or Phe174Ala/Trp vs WT.
The mark [9] stands for this setting: agonist, mouse cerebellum, mean ± S.E.M.

T1 sequence (P21554 whole entry): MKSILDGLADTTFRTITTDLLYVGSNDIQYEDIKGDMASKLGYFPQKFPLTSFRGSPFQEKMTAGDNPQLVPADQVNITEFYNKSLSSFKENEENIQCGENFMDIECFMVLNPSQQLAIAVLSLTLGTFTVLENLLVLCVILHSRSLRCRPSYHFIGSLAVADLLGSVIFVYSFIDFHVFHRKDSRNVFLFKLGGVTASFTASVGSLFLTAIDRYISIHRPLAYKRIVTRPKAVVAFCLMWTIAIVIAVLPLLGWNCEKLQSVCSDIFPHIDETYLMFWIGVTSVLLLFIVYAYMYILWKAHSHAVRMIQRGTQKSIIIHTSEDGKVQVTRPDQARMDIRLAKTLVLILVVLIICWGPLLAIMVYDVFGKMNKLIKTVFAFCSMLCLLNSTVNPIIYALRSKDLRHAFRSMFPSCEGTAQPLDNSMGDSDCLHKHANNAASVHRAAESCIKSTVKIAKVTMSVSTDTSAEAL
Chain of hCB1 WT receptor (P21554 whole entry): as above
Chain of WT CB1 (P21554 whole entry): as above

By Ki is commonly meant a measure of affinity in units of concentration, obtained from inhibition or displacement. High values mean weaker binding, low ones tighter binding. For the compound `Cc1c(C(=O)NN2CCCCC2)nn(-c2ccc(Cl)cc2Cl)c1-c1ccc(C#CCCO[N+](=O)[O-])cc1` [AM6538, 4-(4-(1-(2,4-dichlorophenyl)-4-methyl-3-(piperidin-1-ylcarbamoyl)-1H-pyrazol-5-yl)phenyl)but-3-yn-1-yl nitrate], in assay [1], the inhibition constant Ki was found to be 3.4 ± 1 nM and the “Percentage of remaining binding (Bmax) of [3H]-CP55,940” value is recorded as ~ 30%. In addition, the “Effect on subsequent [3H]-CP55,940 binding after pretreatment and washout” value in assay [2] is given as “wash-resistant binding”. Further, in assay [3], the “Mode of antagonism of CB1-mediated inhibition of adenylyl cyclase activity” value is given as “competitive antagonist”. Also, the “Mode of antagonism of β-arrestin2 recruitment” value in assay [4] is “competitive antagonist”. For the same compound, the “Mode of antagonism of [35S]-GTPγS binding” value in assay [5] is “Competitive antagonism was confirmed”. Moreover, the “Effect of mutation on antagonist functional affinity” value in assay [6] is recorded as “dramatically reduced functional affinity”.

As for `Cc1c(C(=O)NN2CCS(=O)(=O)CC2)nn(-c2ccc(Cl)cc2Cl)c1-c1ccc(C#CCCC#N)cc1` [AM6545], the “Affinity and mode of action at CB1” value in assay [7] (ref Tam et al., 2010) was “high affinity CB1 neutral antagonist”.

For orientation: EC50 means the concentration that produces a half-maximal response. Lower therefore signals a more potent agent. For the compound `CCCCCCC(C)(C)c1ccc([C@@H]2C[C@H](O)CC[C@H]2CCCO)c(O)c1` [CP55,940], in assay [5] (setting [9]), the EC50 came out at 63 ± 5.5 nM and the Emax stood at 2.40 ± 0.04 fold over baseline. In assay [6] (Phe170Ala or Phe174Ala vs WT), the “Effect of mutation on agonist potency” value is reported as “neither mutation alters the potency”. Further, the “Effect of mutation on agonist potency” value in assay [8] is on record as “do not alter the potency”.

On to `C[C@H](NC(=O)C(C)(C)Oc1ccc(C(F)(F)F)cn1)[C@@H](Cc1ccc(Cl)cc1)c1cccc(C#N)c1` [Taranabant], for which the “Affinity with CB1” value in assay [7] (among rimonabant, otenabant and taranabant, ref Table S2) is “highest affinity”.

Consider `Cc1c(C(=O)NN2CCCCC2)nn(-c2ccc(Cl)cc2Cl)c1-c1ccc(Cl)cc1` [rimonabant], for which, in assay [6], the “Effect of mutation on antagonist functional affinity” value is given as “dramatically reduced functional affinity”.
